Measured values reported in US10160747B2, “Compounds and methods for kinase modulation, and indications therefor” (Plexxikon Inc., priority 2016, dated 2018).

What was measured:
[1] = test system: MOLM-14 D835Y (endogenous FLT3 ITD and transfected FLT3 D835Y); assay: MOLM-14 D835Y cell proliferation assay (CellTiter-Glo); assay type: cell-based; conditions: Homo sapiens, MOLM-14, 72 h; 3 d growth, GMean
Excerpt: (§1) The FLT3 inhibitors may be assessed using the MOLM-14, Acute Myeloid Leukemia cell line that endogenously expresses FLT3 ITD or derivatives of the human FLT3 AML cell line which acquired the D835Y (activation loop) of F691L (gatekeeper) mutation after selection in escalating doses of the FLT3 Inhibitor AC220. FLT3 inhibitors may also be assessed using cells that are engineered to express mutant FLT3. For engineered cells, murine Ba/F3 cells were transfected with full-length FLT3 ITD/D835Y mutations. The parental BA/F3 cells are dependent upon Interleukin-3 (IL-3) for survival, and introduction of the FLT3 constructs rendered these cells dependent upon FLT3 kinase activity when cultured in the absences of IL-3. Engineered BA/F3 cell growth assays can be performed in either the […] of IL-3, to assess the compound inhibition of FLT3 or to detect the presence of off-target activity, respectively. Inhibitors of FLT3 kinase activity reduce or eliminate the FLT3 oncogenic signaling, resulting in reduced cell proliferation. This inhibition is measured as a function of compound concentration to assess IC50 values.
(§2) Cell lines used in proliferation assays are as follows in Table 2:
(§3) Cells were seeded at 1×10^4 cells per well of a 96 well cell culture plate in 50 μl of cell culture medium. Compounds were dissolved in DMSO, typically at a concentration of 0.5 mM and were serially diluted 1:3 for a total of eight points and added to the cells to final concentrations of […], 0.0041, 0.0014 and 0.00046 μM in 100 μl cell culture medium (final concentration 0.2% DMSO). […] The cells were incubated at 37° C., 5% CO2 for three days. CellTiter-Glo Buffer (Promega Cell Viability Assay catalog #G7573) and substrate were equilibrated to room temperature, and enzyme/substrate Recombinant Firefly Luciferase/Beetle Luciferin was reconstituted. The cell plates were equilibrated to room temperature for 30 minutes, then lysed by addition of an equivalent volume of the Celltiter-Glo Reagent. The plate was mixed for 10 minutes on a plate shaker to lyse the cells. The plates were read on a Tecan M1000 using Luminescence protocol modified to read 0.1 s per well. The luminescence reading assesses the ATP content, which correlates directly with cell number such that the reading as a function of compound concentration was used to determine the IC50 value.

[2] = test system: MOLM-14 F691L (endogenous FLT3 ITD and transfected FLT3 F691L); assay: MOLM-14 F691L cell proliferation assay (CellTiter-Glo); assay type: cell-based; conditions: Homo sapiens, MOLM-14, 72 h; 3 d growth, GMean
Excerpt: as §1, §2, §3

BA/F3-FLT3-ITD + D835Y = target: T1, BA/F3-FLT3-ITD + D835Y (Homo sapiens, UniProt P36888, D835Y, cells depend on it, form not given); assay: Engineered BA/F3 cell growth assay, FLT3 ITD/D835Y; assay type: cell-based, murine; conditions: 3 d growth
T1 sequence (P36888 with tags, fused parts or gaps INS600HVDFREYEYD/D835Y): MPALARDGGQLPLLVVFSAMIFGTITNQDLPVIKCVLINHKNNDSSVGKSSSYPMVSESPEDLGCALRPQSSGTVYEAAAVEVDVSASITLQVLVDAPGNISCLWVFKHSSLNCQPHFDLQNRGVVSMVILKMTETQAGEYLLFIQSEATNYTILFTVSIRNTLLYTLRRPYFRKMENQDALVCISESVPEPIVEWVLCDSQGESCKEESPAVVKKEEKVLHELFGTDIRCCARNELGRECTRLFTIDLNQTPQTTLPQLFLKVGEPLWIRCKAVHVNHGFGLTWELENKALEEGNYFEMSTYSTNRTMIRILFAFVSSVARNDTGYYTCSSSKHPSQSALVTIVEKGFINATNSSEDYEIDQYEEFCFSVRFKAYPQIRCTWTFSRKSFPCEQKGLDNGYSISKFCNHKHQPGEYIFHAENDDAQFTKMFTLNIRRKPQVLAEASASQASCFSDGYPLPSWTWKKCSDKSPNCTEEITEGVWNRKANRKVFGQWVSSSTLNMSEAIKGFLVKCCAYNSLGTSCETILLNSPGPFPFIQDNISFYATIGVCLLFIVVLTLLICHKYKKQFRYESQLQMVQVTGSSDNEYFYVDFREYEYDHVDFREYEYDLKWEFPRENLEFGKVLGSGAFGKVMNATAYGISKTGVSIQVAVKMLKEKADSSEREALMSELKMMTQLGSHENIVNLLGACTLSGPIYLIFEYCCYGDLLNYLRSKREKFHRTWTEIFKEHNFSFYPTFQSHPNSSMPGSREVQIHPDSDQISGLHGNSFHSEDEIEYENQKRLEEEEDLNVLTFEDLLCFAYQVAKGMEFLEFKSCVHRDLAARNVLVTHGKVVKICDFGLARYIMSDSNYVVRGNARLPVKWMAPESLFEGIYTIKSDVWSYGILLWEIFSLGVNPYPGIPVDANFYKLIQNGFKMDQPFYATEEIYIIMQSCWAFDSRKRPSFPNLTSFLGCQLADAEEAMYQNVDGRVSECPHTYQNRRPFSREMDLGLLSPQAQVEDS
Excerpt: as §1, §2, §3
The BaF3 assays as developed used to generate the data in Tables 7 and 8 are identical and differ only in minor details in regards to vector design, not biological function. Both introduce the FLT3 gene with MV4-11 based ITD duplications and resistance mutations from an exogenous promoter (MSCV and CMV respectively) in the exact same cell line.
As a result of the expressed FLT3 protein, the IL3 factor dependent BaF3 cell clones become IL3-factor independent.
The compounds in Tables 7 and 8 were tested in an identical fashion by incubating such clones in with increasing concentrations. Inhibition of the FLT3 activity by an inhibitor results in factor dependency, which in the absence of IL3 results in cell death in the three day growth assays.

SMILES | IC50 [1] | IC50 [2] | GI50 (BA/F3-FLT3-ITD + D835Y)
Cn1cc(Nc2ncc(-c3ccc(CC(=O)NCc4ccc(F)cc4Cl)cc3)cn2)cn1 [Compound P-0125, N-[(2-chloro-4-fluoro-phenyl)methyl]-2-[4-[2-[(1-methylpyrazol-4-yl)amino]pyrimidin-5-yl]phenyl]acetamide] | 0.0001 to 10 µM | 0.0001 to 10 µM | 0.0001 to 10 µM
O=C(Cc1ccc(-c2cnc3[nH]c(-c4ccnc(N5CCOCC5)c4)cc3c2)nc1)Nc1ccnc(C(F)(F)F)c1 [Compound P-0069, 2-[6-[2-(2-morpholino-4-pyridyl)-1H-pyrrolo[2,3-b]pyridin-5-yl]-3-pyridyl]-N-[2-(trifluoromethyl)-4-pyridyl]acetamide] | 0.0001 to 10 µM | – | 0.0001 to 10 µM
Cn1cc(Nc2ncc(-c3ccc(CC(=O)NCc4ccc(Cl)cn4)cc3)cn2)cn1 [Compound P-0114, N-[(5-chloro-2-pyridyl)methyl]-2-[4-[2-[(1-methylpyrazol-4-yl)amino]pyrimidin-5-yl]phenyl]acetamide] | – | 0.0001 to 10 µM | 0.0001 to 10 µM
N#Cc1ccc(-c2cc3cc(-c4ccc(CC(=O)Nc5ccnc(C(F)(F)F)c5)nc4)cnc3[nH]2)cn1 [Compound P-0184, 2-[5-[2-(6-cyano-3-pyridyl)-1H-pyrrolo[2,3-b]pyridin-5-yl]-2-pyridyl]-N-[2-(trifluoromethyl)-4-pyridyl]acetamide] | – | 0.0001 to 10 µM | 0.0001 to 10 µM
COc1cc(-c2cc3cc(-c4ccc(CC(=O)Nc5ccnc(C(F)(F)F)c5)cn4)cnc3[nH]2)ccn1 [Compound P-0186, 2-[6-[2-(2-methoxy-4-pyridyl)-1H-pyrrolo[2,3-b]pyridin-5-yl]-3-pyridyl]-N-[2-(trifluoromethyl)-4-pyridyl]acetamide] | 0.0001 to 10 µM | – | 0.0001 to 10 µM
N#Cc1cc(-c2cc3cc(-c4ccc(CC(=O)Nc5ccnc(C(F)(F)F)c5)cn4)cnc3[nH]2)ccn1 [Compound P-0185, 2-[6-[2-(2-cyano-4-pyridyl)-1H-pyrrolo[2,3-b]pyridin-5-yl]-3-pyridyl]-N-[2-(trifluoromethyl)-4-pyridyl]acetamide] | – | – | 0.0001 to 10 µM
N#Cc1cc(-c2cc3cc(-c4cc(F)c(CC(=O)Nc5cc(C(F)(F)F)ccn5)cc4F)cnc3[nH]2)ccn1 [Compound P-0188, 2-[4-[2-(2-cyano-4-pyridyl)-1H-pyrrolo[2,3-b]pyridin-5-yl]-2,5-difluoro-phenyl]-N-[4-(trifluoromethyl)-2-pyridyl]acetamide] | 0.0001 to 10 µM | – | 0.0001 to 10 µM

Further lines, results first:

IC50 [1] | IC50 [2] | GI50 (BA/F3-FLT3-ITD + D835Y) | SMILES
0.0001 to 10 µM | 0.0001 to 10 µM | 0.0001 to 10 µM | Cn1cc(Nc2ncc(-c3ccc(CC(=O)Nc4cc(C(C)(F)F)ccn4)c(F)c3)cn2)cn1 [Compound P-0093, N-[4-(1,1-difluoroethyl)-2-pyridyl]-2-[2-fluoro-4-[2-[(1-methylpyrazol-4-yl)amino]pyrimidin-5-yl]phenyl]acetamide]
0.0001 to 10 µM | 0.0001 to 10 µM | 0.0001 to 10 µM | COc1cc(-c2cc3cc(-c4cc(F)c(CC(=O)Nc5cc(C(F)(F)F)ccn5)cc4F)cnc3[nH]2)ccn1 [Compound P-0189, 2-[2,5-difluoro-4-[2-(2-methoxy-4-pyridyl)-1H-pyrrolo[2,3-b]pyridin-5-yl]phenyl]-N-[4-(trifluoromethyl)-2-pyridyl]acetamide]
0.0001 to 10 µM | 0.0001 to 10 µM | 0.0001 to 10 µM | Cn1cc(Nc2ncc(-c3ccc(CC(=O)Nc4cnc(Cl)c(Br)c4)cc3)cn2)cn1 [Compound P-0117, N-(5-bromo-6-chloro-3-pyridyl)-2-[4-[2-[(1-methylpyrazol-4-yl)amino]pyrimidin-5-yl]phenyl]acetamide]
0.0001 to 10 µM | 0.0001 to 10 µM | 0.0001 to 10 µM | Cn1cc(Nc2ncc(-c3ccc(CC(=O)NCc4ccc(C(F)(F)F)cc4)cc3)cn2)cn1 [Compound P-0129, 2-[4-[2-[(1-methylpyrazol-4-yl)amino]pyrimidin-5-yl]phenyl]-N-[[4-(trifluoromethyl)phenyl]methyl]acetamide]
0.0001 to 10 µM | 0.0001 to 10 µM | 0.0001 to 10 µM | COc1ncc(NC(=O)Cc2ccc(-c3cnc4[nH]c(C#CC5CC5)cc4c3)cc2)cc1C(F)(F)F [Compound P-0008, 2-[4-[2-(2-cyclopropylethynyl)-1H-pyrrolo[2,3-b]pyridin-5-yl]phenyl]-N-[6-methoxy-5-(trifluoromethyl)-3-pyridyl]acetamide]
0.0001 to 10 µM | 0.0001 to 10 µM | 0.0001 to 10 µM | Cc1ncc(NC(=O)Cc2ccc(-c3cnc(Nc4cn[nH]c4)nc3)c(F)c2)cc1C(F)(F)F [Compound P-0225, 2-[3-fluoro-4-[2-(1H-pyrazol-4-ylamino)pyrimidin-5-yl]phenyl]-N-[6-methyl-5-(trifluoromethyl)-3-pyridyl]acetamide]
– | – | 0.0001 to 10 µM | O=C(Cc1ccc(-c2cnc3[nH]c(Cl)cc3c2)cc1F)Nc1ccc(C(F)(F)F)cn1 [Compound P-0041, 2-[4-(2-chloro-1H-pyrrolo[2,3-b]pyridin-5-yl)-2-fluoro-phenyl]-N-[5-(trifluoromethyl)-2-pyridyl]acetamide]
0.0001 to 10 µM | 0.0001 to 10 µM | 0.0001 to 10 µM | Cc1noc2ncc(NC(=O)Cc3ccc(-c4cnc(Nc5cnn(C)c5)nc4)cc3)cc12 [Compound P-0130, N-(3-methylisoxazolo[5,4-b]pyridin-5-yl)-2-[4-[2-[(1-methylpyrazol-4-yl)amino]pyrimidin-5-yl]phenyl]acetamide]
0.0001 to 10 µM | 0.0001 to 10 µM | 0.0001 to 10 µM | COc1ncc(NC(=O)Cc2cc(F)c(-c3cnc(Nc4cn[nH]c4)nc3)cc2F)cc1C(F)(F)F [Compound P-0226, 2-[2,5-difluoro-4-[2-(1H-pyrazol-4-ylamino)pyrimidin-5-yl]phenyl]-N-[6-methoxy-5-(trifluoromethyl)-3-pyridyl]acetamide]
0.0001 to 10 µM | 0.0001 to 10 µM | 0.0001 to 10 µM | COc1ncc(NC(=O)Cc2ccc(-c3cnc(Nc4cnn(C)c4)nc3)cc2)cc1Br [Compound P-0118, N-(5-bromo-6-methoxy-3-pyridyl)-2-[4-[2-[(1-methylpyrazol-4-yl)amino]pyrimidin-5-yl]phenyl]acetamide]
0.0001 to 10 µM | 0.0001 to 10 µM | 0.0001 to 10 µM | Cn1cnc(Nc2ncc(-c3ccc(CC(=O)Nc4cnc(Cl)c(C(F)(F)F)c4)cc3)cn2)c1 [Compound P-0148, N-[6-chloro-5-(trifluoromethyl)-3-pyridyl]-2-[4-[2-[(1-methylimidazol-4-yl)amino]pyrimidin-5-yl]phenyl]acetamide]
